Laboratory results published in patent US9365853B2, “Matriptase inhibitors and uses thereof against orthomyxoviridae infections” (priority 2011, dated 2016).
Read-outs that look alike come from different tables or passages of the source. Where a SMILES comes first, the peptide text is derived from it. The star is where a group is joined. X1 = N=C(N)NCCC[C@@H](N*)C(=O)c1nc2ccccc2s1; CH2Cl = ClC*

Columns and labels:
matriptase [1] = target: T1, matriptase (Homo sapiens (Human), UniProt Q9Y5Y6); assay: Ki determination for matriptase (Morrison tight-binding or mixed model, fluorogenic Boc-Gln-Ala-Arg-AMC); format: biochemical; conditions: for reduced potency (lower inhibition) compared to compound 1: matriptase Ki relative to compound 1
furin = furin (Homo sapiens (Human), UniProt P09958); assay: Ki determination, selectivity profile: furin (Boc-Arg-Arg-Val-Arg-AMC); format: biochemical; conditions: furin (protease #7); NI = no inhibition, 10 μM
furin, sequence (P09958 108-794 limits assumed): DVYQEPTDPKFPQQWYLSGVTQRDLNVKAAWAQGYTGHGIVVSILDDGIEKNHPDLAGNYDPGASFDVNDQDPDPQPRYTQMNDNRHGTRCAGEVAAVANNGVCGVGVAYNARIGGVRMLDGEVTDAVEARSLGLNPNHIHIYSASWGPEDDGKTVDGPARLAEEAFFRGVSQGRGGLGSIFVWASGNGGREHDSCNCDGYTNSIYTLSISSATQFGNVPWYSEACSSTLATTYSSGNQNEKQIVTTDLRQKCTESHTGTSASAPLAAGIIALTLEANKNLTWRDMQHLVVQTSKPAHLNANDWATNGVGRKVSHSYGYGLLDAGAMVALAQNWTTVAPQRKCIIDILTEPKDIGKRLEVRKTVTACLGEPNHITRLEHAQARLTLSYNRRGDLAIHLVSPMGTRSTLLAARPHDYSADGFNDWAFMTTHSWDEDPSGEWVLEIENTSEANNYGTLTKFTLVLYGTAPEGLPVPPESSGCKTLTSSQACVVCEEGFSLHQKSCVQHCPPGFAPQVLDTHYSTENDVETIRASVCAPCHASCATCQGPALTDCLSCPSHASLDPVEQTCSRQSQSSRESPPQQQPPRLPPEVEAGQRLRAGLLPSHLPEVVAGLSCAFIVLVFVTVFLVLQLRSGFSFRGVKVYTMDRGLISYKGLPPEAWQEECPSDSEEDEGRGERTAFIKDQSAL

[2] = tested on: influenza A/Puerto Rico/8/34; format: cell-based, influenza A/Puerto Rico/8/34 (H1N1)
[3] = tested on: influenza A/Puerto Rico/8/34 virus; format: cell-based, influenza A/Puerto Rico/8/34 virus (PR8)
[4] = target: Recombinant purified human matriptase (amino acids 596-855) (Homo sapiens (Human), UniProt Q9Y5Y6); assay: biochemical; format: biochemical
Recombinant purified human matriptase (amino acids 596-855), sequence (Q9Y5Y6 596-855 limits assumed): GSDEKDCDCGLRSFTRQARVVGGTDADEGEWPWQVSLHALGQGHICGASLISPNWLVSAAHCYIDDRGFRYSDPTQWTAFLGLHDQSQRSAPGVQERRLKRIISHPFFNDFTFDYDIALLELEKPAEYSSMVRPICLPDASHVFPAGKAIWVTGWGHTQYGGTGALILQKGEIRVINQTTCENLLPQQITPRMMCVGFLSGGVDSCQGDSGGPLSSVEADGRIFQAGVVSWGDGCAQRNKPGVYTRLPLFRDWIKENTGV

matriptase [5] = target: T1, matriptase; assay: Matriptase inhibition in cellulo (HEK293 transfected with pcDNA3.1-matriptase, activity in media); format: cell-based; conditions: HEK293, 24 h incubation, read-out: inhibition of matriptase activity in cultured cells
Description: Human embryonic kidney cells (HEK293) were transfected with 6 μg of pcDNA3.1™ (Mock) or pcDNA3.1™-matriptase (Matriptase) using Lipofectamine 2000™ reagent (Invitrogen) in 10-cm plates. […] After 24 h incubation, media was incubated with Boc-Gln-Ala-Arg-AMC substrate (50 μM) and fluorescence measured for 20 minutes at 37° C. Enzyme activity was determined in terms of released fluorescence units per minutes per μl of media for each condition.

[6] = tested on: influenza A/Puerto Rico/8/34 virus; format: cell-based, influenza A/Puerto Rico/8/34 virus (PR8); remark: listed apart in the source
matriptase [7] = target: T1, matriptase; assay: siRNA knock-down of matriptase protein expression in Calu-3 cells (Western blot, densitometry); format: cell-based; conditions: Calu-3, 50 nmol siRNA, 1.5 μl Lipofectamine RNAiMAX, 48 h after transfection
Description: Using RNA interference technology, siRNAs specific to human matriptase were targeted in these cells. Calu-3 cells were transfected with two different siRNAs (50 nmol, S1: s13520 (Ambion) Silencer® Select siRNAs gene symbol ST14; S2: EHU012511 (Sigma-Aldrich) MISSION® esiRNA targeting human ST14 (esiRNA1)) targeted toward matriptase mRNA (target sequence of EHU012511: […] […] […] […] (SEQ ID NO:5)) using various concentrations of Lipofectamine RNAiMAX™ (0.5 to 1.5 μl). Scrambled siRNAs were used as controls. 48 h after transfection, cellular protein extracts were prepared. Extracts were subjected to polyacrylamide gel electrophoresis (SDS-PAGE) and transferred to nitrocellulose membranes. Membranes were probed for matriptase protein expression using a rabbit anti-human matriptase-specific antibody. Membranes were blocked using non-fat dry milk in Tris-Buffered Saline (TBS) with Tween™ 20. Membranes were then labeled with a rabbit anti-human matriptase-specific antibody (Bethyl Laboratories Inc.).

matriptase [8] = target: T1, matriptase; assay: Dissociation of enzyme:inhibitor complex by dilution recovery experiments; format: biochemical; conditions: matriptase 0.5 μM pre-incubated 20 minutes, diluted 1:2000
Description: Dissociation of the enzyme-inhibitor (EI) complex was investigated using dilution recovery experiments. […] Complexes were rapidly (1:2000) diluted in a reaction buffer containing 400 μM of Boc-Gln-Ala-Arg-AMC (˜7 times Km). Activity was continuously recorded for 75 minutes and fluorescence plotted as a function of time.

Question: `C[C@H](NC(=O)[C@H](CCC(N)=O)NC(=O)[C@@H](N)CCCNC(=N)N)C(=O)N[C@@H](CCCNC(=N)N)C(O)c1nc2ccccc2s1` (mixture of isomers) [Compound 2, 2-(2-amino-5-carbamimidamidopentanamido)-N-(1-{[1-(1,3-benzothiazol-2-yl)-5-carbamimidamido-1-hydroxypentan-2-yl]carbamoyl}ethyl)pentanediamide] was tested. Which Ki (matriptase [1]) did it give?
Answer: The Ki was 6.1 µM.

Question: How did the “Ki (nM)” value (furin) turn out when `C[C@H](NC(=O)[C@H](CCC(N)=O)NC(=O)[C@@H](N)CCCNC(=N)N)C(=O)N[C@@H](CCCNC(=N)N)C(=O)c1nc2ccccc2s1` [Compound 1, RQAR-ketobenzothiazole] was run?
Answer: Its value is “no inhibition”.

Question: What about the “block of influenza replication” value [2] of the same compound?
Answer: Its value is “more than 50%”.

Question: What about the “effect on influenza replication with trypsin as the activating protease” value [3] of the same compound?
Answer: Its value is “no effect”.

Question: What about the “inhibition of matriptase activity” value [4] of the same compound?
Answer: Its value is “almost completely”.

Question: And the inhibition at 1 µM (matriptase [5]; 1 μM)?
Answer: Its inhibition at 1 µM is about 50%.

Question: What about the inhibition at 10 µM (matriptase [5]; 10 μM) of the same compound?
Answer: Its inhibition at 10 µM is about 100%.

Question: And the “influenza replication supported by matriptase” value ([6]; 1 μM)?
Answer: The value was “completely abrogate”.

Question: What about the “influenza replication supported by matriptase” value ([6]; 10 μM) of the same compound?
Answer: Its value is “completely abrogate”.

Question: `CC(NC(=O)C(CCC(N)=O)NC(=O)C(N)CCCNC(=N)N)C(=O)NC(CCCNC(=N)N)C(O)c1nc2ccccc2s1` (centres unmarked) [Compound 2, 2-(2-amino-5-carbamimidamidopentanamido)-N-(1-{[1-(1,3-benzothiazol-2-yl)-5-carbamimidamido-1-hydroxypentan-2-yl]carbamoyl}ethyl)pentanediamide] was tested. Which matriptase protein expression (matriptase [7]) did it give?
Answer: Its matriptase protein expression is “significantly blocked”.

Question: `CC(NC(=O)C(CCC(N)=O)NC(=O)C(N)CCCNC(=N)N)C(=O)NC(CCCCN)C(=O)c1nc2ccccc2s1` (centres unmarked) [Compound 3, N-(1-{[6-amino-1-(1,3-benzothiazol-2-yl)-1-oxohexan-2-yl]carbamoyl}ethyl)-2-(2-amino-5-carbamimidamidopentanamido)pentanediamide] was tested. Which “decrease of the Ki relative to compound 1” value (matriptase [1]) did it give?
Answer: Its value is “about 3 orders of magnitude”.

Question: What about the inhibition at 1 µM ([4]; read-out: inhibition of matriptase activity) of the same compound?
Answer: The inhibition at 1 µM was about 25%.

Question: How did the Ki (matriptase [1]) turn out when `CC(=O)NC(CCCNC(=N)N)C(=O)c1nc2ccccc2s1` (centres unmarked) [Compound 6, N-[1-(1,3-benzothiazol-2-yl)-5-carbamimidamido-1-oxopentan-2-yl]acetamide] was run?
Answer: The Ki was 0.457 µM.

Question: And the mode of inhibition (matriptase [1]; matriptase)?
Answer: Its mode of inhibition is “mixed mode of inhibition”.

Question: What about the “reduced potency (lower inhibition) compared to compound 1” value (matriptase [1]) of the same compound?
Answer: The value was “over 30,000 fold”.

Question: With `C[C@H](NC(=O)[C@H](CCC(N)=O)NC(=O)[C@@H](N)CCCNC(=N)N)C(=O)N[C@@H](CC(=O)O)C(=O)N[C@H](CCCNC(=N)N)C(=O)c1nc2ccccc2s1` [Compound 7] (H-RQAD-X1) as the compound, how does the “reduced potency (lower inhibition) compared to compound 1” value (matriptase [1]) read?
Answer: Its value is 400 fold.

Question: For `N=C(N)NCCC[C@H](NC(=O)CNC(=O)[C@@H](N)CCC(=O)O)C(=O)CCl` [EGR-CMK, Glu-Gly-Arg chloromethyl ketone] (H-Glu-Gly-Arg-CH2Cl), which “dissociation of enzyme:inhibitor complex (reversibility)” value (matriptase [8]) is on record?
Answer: The value was “irreversible inhibition”.
